According to patent US20080146592A1, “Method of Treating Preeclampsia Employing Metolazone” (priority 2003, published 2008):

Test system: “preeclamptic” rat model
Assay: "preeclamptic" rat model (pregnant rats, saline drinking water plus weekly DOCA)
Type: in vivo, Sprague-Dawley rats
Method: Metolazone is a diuretic with unique properties. At low doses, it reduces blood pressure in our “preeclamptic” rat model. Female Sprague-Dawley rats were mated and the “preeclamptic” syndrome was induced by replacing their drinking water with saline and injecting them with DOCA at weekly intervals. When hypertension had occurred (3-5 days of gestation), the animals were randomly divided into two groups: 1) Group I (PE+M), n=7, was given metolazone in a daily dose of 0.04 mg/kg body weight daily for 12-14 day by gavage and 2) Group II (PE) n=5, was simply given the vehicle (saline).

[1] = rat model of preeclampsia, metolazone treatment

Weight gain versus vehicle group (PE+M versus PE rats): similar
Volume contraction (rat model of preeclampsia, non-diuretic dose): without causing volume contraction
Compound: Cc1ccccc1N1C(=O)c2cc(S(N)(=O)=O)c(Cl)cc2NC1C (stereo not shown) [Metolazone, metolazone]
Urinary sodium excretion after M (PE+M rats, 0.04 mg/kg daily by gavage, 16.2+/−6 mM/24 h prior to M administration, p>0.05): 15.3 mM/24 h
Growth retardation (animals affected) (PE+M rats, seen in four of the five vehicle PE animals): none
Blood pressure in the PE+M animals after treatment (mean) (metolazone 0.04 mg/kg body weight daily for 12-14 day by gavage, before treatment 119+/−3 mm Hg, vehicle PE rats 121+/−7 mm Hg, p<0.01): 100+/−16 mm/Hg
Effect on intrauterine growth restriction [1]: beneficial effect
Influence on pup number and development [1]: positive influence
